Source: US20030144347A1, “Method for treating autoimmune disease” (priority 2001, published 2003)

Experiments:
[1] = system: patient suffering from multiple sclerosis; test: Case reports: patients suffering from multiple sclerosis treated with topiramate; assay type: in vivo, human
Description: A patient suffering from multiple sclerosis was administered 15 mg per day of topiramate. The dosage was increased after 15 days to 30 mg per day. At 15 mg, the patient's involuntary stretch rigid response stopped and the patient was able to get out of bed without falling backward when their feet touched the floor for the first time in nine years.
The patient previously took trazadone 100 mg at bedtime, clonazepan 1 mg three times a day, citalapram 40 mg each morning, gabapentrin 600 mg four times a day, and synthroid 25 mcg per day for two years. They had refused steroids and interferon because of side effects.
The Topamax was increased to 15 mg at bedtime and they reported “no bad bladder accidents” and that their leg and foot cramps had disappeared. […] They were discharged on Topamax 15 mg at bedtime along with previous medications. The patient was much improved medically and emotionally.
The patient returned four weeks later walking with a cane, having worked “10 to 14 hours per day and exhausted from my move with little sleep during the past month”. They reported “insatiable itching all over my body wherever my clothes touch the skin” which […] unsuccessfully tried to treat with cetirizine. […] said […] felt “dizzy, weak, Charlie horses in arches of feet and toes, unable to stand for more than 10 minutes before starting to have gait problems, problems sleeping, having trouble mentally and urine leaking”. […] working diagnoses are Axis I Bipolar disorder, not otherwise specified Axis III multiple sclerosis. […]

[2] = system: patient suffering from pemphigus vulgaris; test: Case reports: patients suffering from pemphigus vulgaris; assay type: in vivo, human
Description: A patient suffering from pemphigus vulgaris and taking 15 mg of chobetesol propionate per day began taking 15 mg per day of topiramate. The dose was increased to 45 mg in divided dosages over a three week period. […] This occurred and was maintained even after chobetesol propionate was reduced to 5 mg every 3 days, at 8 weeks from the initial dose of 15 mg per day. […] A patient suffering from permphigus vulgaris and taking 50 mg twice a day of immuran and 20 mg per day of prednisone began taking 15 mg per day of topiramate. The dose was increased to 45 mg per day in divided dosages over a three-week period. […] This occurred in spite of reducing the immuran to 50 mg and prednisone to 10 mg each day, which were their lowest dosages in two years. […] These improvements continued to be maintained at 20 weeks and Ig antibody was zero.

[3] = system: patient suffering from multiple autoimmune diseases; test: Case report: patient suffering from multiple autoimmune diseases; assay type: in vivo, human; details: Example 15
Description: A patient suffering from multiple autoimmune diseases was treated with topiramate. The patient was suffering from systemic lupus erythematosis (SLE) acquired anemia of gamma globulins, rheumatoid arthritis, Renaud's phenomena and Hashimotos thyroiditis. The patient was also taking medrol at doses of 32 mg per day and up to 132 mg per day and 25 mg weekly injections of methotrexate.
The topiramate treatment was begun at 15 mg per day and increased weekly by 15 mg to […] and then stabilized at 50 mg per day after two months. […] The frequency and intensity of their iritis, which was occurring every one to two months and lasting for 1 to 2 weeks, described as an “incredible pain relieved only by wrapping my eyes and head with a black towel”, decreased. It has occurred only once since using Topamax® when their parent was dying. […] The patient drove to their last appointment, which is the first time they have been able to do so in five years. They have now had consistent benefits for more than 6 months.

[4] = system: human epilepsy; details: clinical trials; cited from earlier work
[5] = system: rodent models of epilepsy; details: several rodent models of epilepsy; cited from earlier work
[6] = system: animal model of kindled epilepsy; details: cited from earlier work
[7] = Example 18, 15 mg at bedtime, two days later

For CC1(C)O[C@@H]2[C@@H](CO[C@@]3(COS(N)(=O)=O)OC(C)(C)O[C@@H]23)O1 [topiramate, 2,3:4,5-bis-O-(1-methylethylidence)-β-D-fructopyranose sulfamate], the “duration of beneficial effect” value ([1]; Example 1, 12.5 mg per day) was “more than 10 months”, the “involuntary stretch rigid response” value ([1]; Example 1, 15 mg per day) was “stopped” and the spastic rigid response ([1]; Example 1, dose lowered to 12.5 mg per day) was “no longer present”. For the same compound, the “involuntary stretch rigid response” value ([1]; Example 1, higher dose of 30 mg per day) was “reversed this benefit”, the “walking and back pain” value ([1]; Example 18, 7.5 mg at bedtime for three days) was “walking better and reported reduced back pain” and the “leg and foot cramps” value ([1]; Example 18, 15 mg at bedtime) was “disappeared”. The “urinary incontinence and back pain” value [1, 7] was “no urinary incontinence or back pain”, the walking [1, 7] was “walking without a cane” and the patient-reported symptoms ([1]; Example 18, 30 mg at bedtime, seen eight days later) was “no dizziness, weakness, urinary incontinence and decreased gait problems, itching and pain”. The “time at which improvement continued to be maintained” value ([2]; Example 13) was 12 weeks, the lesions ([2]; Example 13, 45 mg in divided dosages, chobetesol propionate reduced) was “began to shrink, dried up and formed a scab, which came off leaving normal skin” and the “time at which improvements continued to be maintained” value ([2]; Example 14) was 20 weeks. For the same compound, the lesions ([2]; Example 14, 30 mg twice a day) was “second lesion healing”, the lesions ([2]; Example 14, 45 mg per day, at three weeks) was “one lesion was shrinking” and the lesions ([2]; Example 14, 45 mg per day, by four weeks, immuran and prednisone reduced) was “healed and the second lesion was beginning to shrink”. For the same compound, the Ig antibody ([2]; Example 14, at 20 weeks) was “zero”, the “time without another episode of iritis” value [3] was “five” and the “frequency and intensity of iritis” value ([3]; 50 mg per day) was “decreased”. The “duration of consistent benefits” value ([3]; despite cessation of methotrexate) was “more than 6 months”, the pain when walking ([3]; up to 65 mg per day, stabilized at 50 mg per day, medrol reduced to 5 mg per day) was “very significant decrease in pain when walking” and the “efficacy in simple and complex partial seizures and secondarily generalized seizures” value [4] was “effective as adjunctive therapy or as monotherapy”. The seizures [5] was “effectively block seizures” and the seizures [6] was “effectively block seizures”.
